Measurements: patent publication US8435569B2, “Pharmaceutical composition comprising at least one thrombolytic agent (A) and at least one gas (B) selected from the group consisting of nitrous oxide, argon, xenon, helium, neon” (NNOXE Pharmaceutiques Inc., priority 2007, dated 2013)
One block for each compound: values may come before it.

Legend:
human recombinant t-PA = human recombinant t-PA (Homo sapiens, UniProt P00750); test: Catalytic activity of t-PA (initial rate method, spectrophotometer); assay type: biochemical
human recombinant t-PA, sequence (P00750 36-562): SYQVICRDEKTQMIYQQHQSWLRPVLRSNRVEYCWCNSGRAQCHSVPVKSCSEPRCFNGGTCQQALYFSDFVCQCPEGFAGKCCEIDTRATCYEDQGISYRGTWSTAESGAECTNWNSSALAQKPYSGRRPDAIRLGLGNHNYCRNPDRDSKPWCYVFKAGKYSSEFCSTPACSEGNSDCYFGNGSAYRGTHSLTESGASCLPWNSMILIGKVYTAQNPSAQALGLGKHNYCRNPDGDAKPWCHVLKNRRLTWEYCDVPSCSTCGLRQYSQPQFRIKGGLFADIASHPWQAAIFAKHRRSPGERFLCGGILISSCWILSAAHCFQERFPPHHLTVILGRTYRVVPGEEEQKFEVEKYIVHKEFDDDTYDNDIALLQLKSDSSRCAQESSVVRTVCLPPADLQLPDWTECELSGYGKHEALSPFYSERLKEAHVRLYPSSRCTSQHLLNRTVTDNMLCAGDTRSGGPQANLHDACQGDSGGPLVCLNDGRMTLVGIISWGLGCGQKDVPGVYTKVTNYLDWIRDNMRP
Procedure: All experiments were performed as follows: Fifty (50) μL of human recombinant t-PA was incubated with 50 μL of its substrate: methylsulfonyl-D-phenyl-glycil-arginine-7-amino-4-methylcoumarin acetate. For plasmin, twenty five (25) μL of human recombinant plasmin was incubated with 25 μL of its substrate: H-D-norleucyl-hexahydrotyrosol-lysine-para-nitroanilide diacetate. The kinetics of the catalytic activity of t-PA or plasmin was immediately measured using a spectrophotometer, and then estimated using the initial rate method. Solutions of t-PA or plasmin and their substrates were saturated with air (control), or with nitrous oxide, argon, xenon, or helium at concentrations of 15 vol % to 75 vol %, the remainder being oxygen at 25 vol %, completed with nitrogen when necessary.
For all gas mixtures in FIG. 1, the remainder is 25 vol % oxygen completed with nitrogen if necessary.
(§1) The effects of oxygen on the catalytic activity and thrombolytic properties of t-PA were also evaluated in vitro and in vivo according to the methods described above.

[1] = system: middle cerebral artery occlusion using an autologous blood clot; test: In vivo thrombolysis/reperfusion after embolic middle cerebral artery occlusion using an autologous blood clot; design: species or system rat
Procedure: In vivo experiments (FIG. 3) were performed in Male adult Sprague-Dawley rats (290±40 g). The animals had free access to food and water in an animal room at constant temperature and humidity. Rats monitored for their physiological functions were anesthesized, and subjected to cerebral ischemia by occlusion of the middle cerebral artery using an autologus blood clot obtained from whole blood withdrawn from the rat 24 h prior surgery, allowed to clot at 37° C. for 2 h, and then and stored at 4° C. for 22 h.
Embolic occlusion of the middle cerebral artery was induced using an autologous blood clot. Briefly, a blood clot of 4 cm long was injected with a volume of […] of saline into the middle cerebral artery. Forty-five minutes after occlusion of the middle cerebral artery, the rats were given t-PA intravenously (0.9 mg/kg; 10% bolus, 90% perfusion during 45 minutes) in order to induce thrombolysis. Five minutes before the bolus injection and all along the perfusion period with t-PA, the rats were treated with medical air (controls) or xenon. Then, the catheter was removed, and all the incisions closed. After the experiment, the rats were allowed moving freely in their home cage with free access to food and water.
as §1

t-PA-induced clot lysis = test: In vitro t-PA-induced clot lysis of rat blood clots; assay type: biochemical; conditions: for effect on t-PA-induced clot lysis: t-PA 0.008 mg/mL
Procedure: In vitro experiments (FIG. 2) were performed using Male adult Sprague-Dawley rats (500±50 g). The rats were killed by decapitation. A volume of 500 μL of rat blood was transferred in different pre-weighed sterile Eppenforf™ tubes of 1.5 mL volume and incubated at 37° C. for 15 hours.
After clot formation, serum was completely removed, aspired out without disturbing the clot formed, and each tube was again weighed to determine the clot weight (clot weight=weight of tube containing clot−weight of tube alone). Each tube containing clot was properly labeled and filled with 1 mL of a saline solution containing 0.008 mg/mL of t-PA, saturated beforehand with medical air (control), nitrous oxide, xenon, argon or a mixture of nitrous oxide and argon. Some tubes were filled with saline alone saturated with medical air to serve as a negative control. All tubes were then incubated at 37° C. for 1 h 30 min. After incubation, the fluid obtained was removed and tubes were again weighed to observe the difference in weight after clot disruption. Difference obtained in weight taken before and after clot lysis was expressed as a percentage of clot lysis.
as §1

[2] = system: NMDA-induced neuronal death; test: NMDA-induced neuronal death after intracerebral injection, with or without t-PA; assay type: in vivo, rat
Procedure: Experiments were conducted in Male adult Sprague-Dawley rats. The rats were given, under short halothane-oxygen anesthesia of 10 min duration, an intracerebral injection of 50 nmol NMDA, alone or in combination with 3 mg t-PA, in […] saline solution.
One hour later, the rats were treated for a 3 h period in an environmental chamber saturated with nitrous oxide at 50 vol % with the remainder being oxygen at 25 vol % completed with nitrogen.
Forty-eight (48) hours after NMDA injection, rats were killed by decapitation under halothane-oxygen anesthesia. The brain was rapidly removed, frozen in isopentane, placed at −80° C. Coronal brain sections (20 μm) were then cryostat-cut, mounted on gelatinized slides, and stained with thionin. Brain sections colored with thionin were then digitized on a PC computer, and analyzed with an image analyzer (ImageJ® software, Scion corp., USA) by two blinded scientists. Values were averaged; value differences were no more than 10% (mean: 0.5±1%). The lesion areas were delineated by the pallor of histological staining in the necrotic tissue compared with the surrounding healthy tissue. The infarction volume was calculated by integration over the whole brain of the infarcted surfaces, using the sterotaxic atlas for the rat brain of Paxinos and Watson (Academic Press, 1998).

[3] = solutions saturated with gas at 15 vol % to 75 vol %, remainder 25 vol % oxygen completed with nitrogen, vs air control
[4] = gas at 50 vol %, 37° C., 1 h 30 min

effect on the catalytic activity of t-PA (human recombinant t-PA; oxygen at 100 vol %): increases
Compound: O=O [Oxygen, oxygen]
effect on in vivo thrombolytic action of t-PA ([1]; oxygen at 100 vol %): facilitates
effect on in vitro thrombolytic action of t-PA (t-PA-induced clot lysis; oxygen at 100 vol %): facilitates

Compound: [Ar] [argon]
effect on the catalytic activity of t-PA (human recombinant t-PA; [3]): reduced
effect on t-PA-induced clot lysis (t-PA-induced clot lysis; gas at 30 vol %, 37° C., 1 h 30 min): reduce

Compound: [He] [helium]
effect on the catalytic activity of t-PA (human recombinant t-PA; [3]): reduced
effect on t-PA-induced clot lysis (t-PA-induced clot lysis; gas at 75 vol %, 37° C., 1 h 30 min): reduce

Compound: [N-]=[N+]=O [nitrous oxide]
effect on the catalytic activity of t-PA (human recombinant t-PA; [3]): reduced
reduction of neuronal death induced by co-administration of t-PA and NMDA ([2]; nitrous oxide 50 vol % for 3 h, 1 h after 50 nmol NMDA + t-PA intracerebral, infarction volume at 48 h): 45%
reduction of neuronal death produced by NMDA ([2]; nitrous oxide 50 vol % for 3 h, 1 h after 50 nmol NMDA intracerebral, infarction volume at 48 h): 22%
reduction of the proteolytic action of t-PA responsible for the enhancement of neuronal death ([2]; nitrous oxide 50 vol %, difference 45%−22%): approximately 23%
effect on t-PA-induced clot lysis (t-PA-induced clot lysis; [4]): reduce

Compound: [Xe] [xenon]
effect on the catalytic activity of t-PA (human recombinant t-PA; [3]): reduced
reperfusion rate versus control rats treated with t-PA and medical air ([1]; xenon at 75 vol % from 5 min before bolus and during t-PA perfusion (0.9 mg/kg i.v.)): lower reperfusion rate
effect on t-PA-induced clot lysis (t-PA-induced clot lysis; [4]): reduce

Compound: t-PA: human recombinant tissue-type plasminogen activator, a thrombolytic serine protease
reperfusion ([1]; t-PA 0.9 mg/kg intravenously 45 min after occlusion, vs rats not treated with t-PA): exhibit reperfusion
effect on NMDA-induced neuronal death ([2]; t-PA co-administered with 50 nmol NMDA intracerebrally): increases
percentage of clot lysis (t-PA-induced clot lysis; t-PA 0.008 mg/mL in saline saturated with medical air (control), 37° C., 1 h 30 min): around 23%
